Data on four molecules can be found in PMC6988731 (Bioorganic & medicinal chemistry, 2011).

The assay has as its target rat TRPV1 (Rattus norvegicus, UniProt O35433). The experiment in a line: competitive binding assay with [3H]RTX, rat TRPV1 expressed in CHO cells. The settings on record: rTRPV1/CHO; for fold reduction in binding affinity and antagonism compared to 50: relative to 50; for fold less potent than parent 3: receptor activity (binding affinity and antagonism), relative to 3.

rat TRPV1, sequence (O35433 whole entry): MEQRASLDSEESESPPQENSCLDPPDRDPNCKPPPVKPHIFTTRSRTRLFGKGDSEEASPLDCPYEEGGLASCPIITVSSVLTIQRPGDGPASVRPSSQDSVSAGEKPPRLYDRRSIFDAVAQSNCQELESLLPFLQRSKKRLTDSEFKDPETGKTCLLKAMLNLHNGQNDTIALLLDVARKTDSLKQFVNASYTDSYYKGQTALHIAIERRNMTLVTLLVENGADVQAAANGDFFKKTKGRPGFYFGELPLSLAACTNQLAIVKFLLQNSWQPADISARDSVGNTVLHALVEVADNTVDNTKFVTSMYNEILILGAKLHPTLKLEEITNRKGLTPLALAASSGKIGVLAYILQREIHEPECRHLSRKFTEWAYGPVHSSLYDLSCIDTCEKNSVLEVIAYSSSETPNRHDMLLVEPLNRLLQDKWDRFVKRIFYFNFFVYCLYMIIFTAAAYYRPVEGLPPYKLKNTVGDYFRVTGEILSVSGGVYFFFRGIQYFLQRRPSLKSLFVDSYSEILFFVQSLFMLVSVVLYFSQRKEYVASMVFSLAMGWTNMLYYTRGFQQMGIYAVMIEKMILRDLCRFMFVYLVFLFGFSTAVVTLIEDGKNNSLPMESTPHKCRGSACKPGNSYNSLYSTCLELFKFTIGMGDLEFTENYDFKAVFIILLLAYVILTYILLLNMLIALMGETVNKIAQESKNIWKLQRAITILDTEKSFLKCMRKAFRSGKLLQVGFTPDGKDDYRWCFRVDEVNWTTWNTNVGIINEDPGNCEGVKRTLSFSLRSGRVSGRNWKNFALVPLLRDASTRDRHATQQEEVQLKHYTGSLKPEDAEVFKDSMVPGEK

With `CC(C(=O)NCC=C1c2ccccc2C=Cc2ccccc21)c1ccc(NS(C)(=O)=O)c(F)c1` (stereo not shown) [compound 60, N-[2-Dibenzo[a,d]cyclohepten-5-ylidene-ethyl]-2-(3-fluoro-4-methylsulfonylamino-phenyl)-propionamide], the “fold reduction in binding affinity and antagonism compared to 50” value is 5–10 fold.

For `CC(C(=O)NCc1ccc(I)cc1)c1ccc(NS(C)(=O)=O)c(F)c1` (stereo not shown) [compound 24, 2-(3-Fluoro-4-methanesulfonylamino-phenyl)-N-(4-iodo-benzyl)-propionamide], the “fold less potent than parent 3” value stood at 10 fold.

Regarding `CC(C(=O)NCC=C1c2ccccc2CCc2ccccc21)c1ccc(NS(C)(=O)=O)c(F)c1` (stereo not shown) [compound 59, N-[2-(10,11-Dihydro-5H-dibenzo[a,d]cyclohepten-5-yliden)ethyl]-2-[3-fluoro-4-(methylsulfonylamino)phenyl]propionamide], the “fold reduction in binding affinity and antagonism compared to 50” value is reported as 5–10 fold.

Regarding `Cc1ccc(CCCNC(=O)C(C)c2ccc(NS(C)(=O)=O)c(F)c2)cc1C` (stereo not shown) [compound 40, N-[3-(3,4-Dimethylphenyl)propyl]-2-[3-fluoro-4-(methylsulfonylamino)phenyl]propionamide], the “fold less potent than parent 3” value was “ca. 10 fold”.
